# Data as given in article PMC7355955, “Validation of Pharmacological Protocols for Targeted Inhibition of Canalicular MRP2 Activity in Hepatocytes Using [^99mTc]mebrofenin Imaging in Rats” (Pharmaceutics, 2020).
# Read-outs that look alike come from different tables or passages of the source.
# Experiments:
# rats = details: rat, in vivo
# [1] = test system: hepatic OATP and MRP2 activity; details: rat; lowest doses: DTZ 10 mg/kg s.c., CsA 0.01 mg/kg i.v.
# Description: [^99mTc]mebrofenin scintigraphy was performed using a clinical SPECT-CT camera (Symbia®, Siemens, Knoxville, TN, USA) with a Low Energy High Resolution (LEHR) collimator. In each session, 3 rats were placed in a row on the scanner bed and catheters were inserted in the caudal vein. Experiments were performed for control conditions or after injection of the different transporter inhibitors. RIF (40 mg/kg intravenously, i.v.) was injected immediately before [^99mTc]mebrofenin as previously described [33]. […] Rats were injected with [^99mTc]mebrofenin (39 ± 4 MBq, i.v.) followed by dynamic planar acquisitions. Acquisitions were terminated by a X-ray CT scan.
# Images were analyzed with PMOD® software (version 3.9, PMOD Technologies LLC). Regions of interest (ROI) were manually drawn on the liver, intestine, heart (= image-derived blood curve) and urinary bladder. Corresponding TACs were generated by plotting the mean radioactivity amount in each ROI normalized to the injected dose in each animal (cps/MBq) versus time.
# human MRP2 = human MRP2 (Homo sapiens, UniProt Q92887); assay: cell-based
# Sequence of human MRP2 (Q92887 whole entry): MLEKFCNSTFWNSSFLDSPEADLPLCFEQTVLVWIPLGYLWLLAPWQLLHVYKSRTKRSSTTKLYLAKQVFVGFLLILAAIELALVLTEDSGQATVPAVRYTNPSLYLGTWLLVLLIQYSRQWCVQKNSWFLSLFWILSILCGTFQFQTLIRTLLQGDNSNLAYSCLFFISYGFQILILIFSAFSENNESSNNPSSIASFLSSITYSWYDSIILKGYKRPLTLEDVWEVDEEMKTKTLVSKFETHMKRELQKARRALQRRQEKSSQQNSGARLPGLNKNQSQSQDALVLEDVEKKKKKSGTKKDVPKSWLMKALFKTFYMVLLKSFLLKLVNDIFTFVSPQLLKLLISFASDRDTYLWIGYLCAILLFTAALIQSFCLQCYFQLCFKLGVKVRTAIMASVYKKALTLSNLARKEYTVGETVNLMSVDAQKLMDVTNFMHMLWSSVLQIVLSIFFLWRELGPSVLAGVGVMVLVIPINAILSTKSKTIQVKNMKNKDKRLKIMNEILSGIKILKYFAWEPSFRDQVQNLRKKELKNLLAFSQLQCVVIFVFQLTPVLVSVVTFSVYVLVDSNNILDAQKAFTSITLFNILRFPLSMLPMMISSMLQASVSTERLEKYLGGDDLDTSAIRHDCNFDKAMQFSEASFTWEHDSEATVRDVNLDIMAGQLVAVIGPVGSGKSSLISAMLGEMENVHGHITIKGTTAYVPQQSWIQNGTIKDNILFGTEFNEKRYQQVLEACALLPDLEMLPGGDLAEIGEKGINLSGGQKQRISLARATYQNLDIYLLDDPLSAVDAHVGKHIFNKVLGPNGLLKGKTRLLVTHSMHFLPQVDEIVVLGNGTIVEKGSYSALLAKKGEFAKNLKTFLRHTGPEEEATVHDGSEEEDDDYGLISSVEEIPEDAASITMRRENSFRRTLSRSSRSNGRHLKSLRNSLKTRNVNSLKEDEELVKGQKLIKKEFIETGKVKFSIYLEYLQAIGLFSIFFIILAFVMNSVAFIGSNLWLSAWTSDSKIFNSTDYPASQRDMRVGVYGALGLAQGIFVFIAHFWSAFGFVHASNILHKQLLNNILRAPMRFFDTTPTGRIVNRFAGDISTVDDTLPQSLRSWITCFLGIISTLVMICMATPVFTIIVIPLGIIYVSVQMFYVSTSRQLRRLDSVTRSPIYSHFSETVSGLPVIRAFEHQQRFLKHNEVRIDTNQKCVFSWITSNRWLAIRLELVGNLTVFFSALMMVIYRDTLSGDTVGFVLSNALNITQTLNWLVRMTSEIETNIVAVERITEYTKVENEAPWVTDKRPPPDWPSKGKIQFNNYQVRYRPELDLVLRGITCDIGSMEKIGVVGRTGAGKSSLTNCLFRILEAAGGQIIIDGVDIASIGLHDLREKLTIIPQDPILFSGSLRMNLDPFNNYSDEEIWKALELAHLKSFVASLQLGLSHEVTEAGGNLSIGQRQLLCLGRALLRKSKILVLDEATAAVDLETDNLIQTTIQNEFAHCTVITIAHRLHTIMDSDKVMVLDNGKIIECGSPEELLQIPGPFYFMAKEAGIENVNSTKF
# Description: Stably transfected MDCK-II-MRP2 cells overexpressing human MRP2 were a kind gift from A. Schinkel ([…], The Netherlands). Cells were cultured in a controlled atmosphere at 37 °C, 5% CO2. The culture medium was composed of DMEM Glutamax (Dulbecco’s Modified Eagle Medium, 4.5 g/L D-glucose, pyruvate) supplemented with 10% fetal bovine serum and 1% antibiotics (penicillin and streptomycin 5000 U/mL). MRP2-mediated transport was assessed using the calcein-AM assay. Cells were seeded in 24-well plates (30,000 cells per well) in 500 μL of culture medium. […] After 30 min at 37 °C, the incubation buffer was removed and cell monolayers were rapidly washed with 300 μL of ice-cold buffer (Dulbecco’s phosphate buffered saline + CaCl2 + MgCl2). Cells were then lysed by 10 min of incubation with 500 μL of NaOH (10 mM). […] For each inhibitor, uptake data were normalized to describe the extent of inhibition from 0 to maximal (100%) inhibition.
# [2] = test system: hepatic OATP and MRP2 activity; parameters: method as in PMID 23440558; details: cited from earlier work
# [3] = mice, lowest tested dose 12.5 mg/kg i.v. followed by 3.12 mg/kg intraperitoneal
SMILES,tolerance of i.v. doses higher than 3 mg/kg (rats),"outcome of intravenous injection (rats; iv, 40 mg/kg)",effect on initial liver uptake (AUCRliver/blood 0–3 min) of [99mTc]mebrofenin [1],IC50 (human MRP2),"change in AUCRbile/liver of [99mTc]mebrofenin (biliary excretion) ([2]; mice, higher doses of RIF)","change in AUCRbile/liver of [99mTc]mebrofenin (biliary excretion) [2, 3]","effect on liver uptake of [99mTc]mebrofenin [2, 3]","concentration achieving full MRP2 inhibition (human MRP2; MDCK-II-MRP2 cells, calcein-AM assay)",fold decrease in AUCRbile/liver with MRP2-deficiency ([2]; MRP2-deficient mice)
"COc1ccc([C@@H]2Sc3ccccc3N(CCN(C)C)C(=O)[C@@H]2OC(C)=O)cc1 [DTZ, Diltiazem]",poor tolerance,lethal,did not affect,4.4 µM,–,–,–,–,–
"CO[C@H]1/C=C/O[C@@]2(C)Oc3c(C)c(O)c4c(O)c(c(/C=N/N5CCN(C)CC5)c(O)c4c3C2=O)NC(=O)/C(C)=C\C=C\[C@H](C)[C@H](O)[C@@H](C)[C@@H](O)[C@@H](C)[C@H](OC(C)=O)[C@@H]1C [RIF, rifampicin]",–,–,–,210 µM,−94%,−25%,did not impact,> 500 µM,–
Cc1cc(C)c(NC(=O)CN(CC(=O)[O-])CC(=O)[O-])c(C)c1Br.Cc1cc(C)c(NC(=O)CN(CC(=O)[O-])CC(=O)[O-])c(C)c1Br.[99Tc+4] [[^99mTc]mebrofenin],–,–,–,–,–,–,–,–,~ 10 fold
